Measurements taken from patent US20150329825A1, “COMPOSITIONS AND METHODS EMPLOYING STEM CELL-DERIVED CARDIOMYOCYTES” (THE REGENTS OF THE UNIVERSITY OF MICHIGAN, priority 2014, published 2015).

How the values were obtained:
Assay type in all cases: cell-based, human
hiPSC-CM monolayers [1] = experiment: 96 well optical mapping of intracellular calcium flux in hiPSC-CM monolayers under IKr blockade; conditions: 100 nmol L^-1 E4031
Description: Briefly, monolayers were loaded with the intracellular Ca^2+ indicator, rhod-2AM (10 μmol L-1, Life Technologies). After a 30 minute incubation time, the cells were washed in Hanks balanced salt solution (HBSS, Life Technologies) for an additional 30 minutes before optical mapping recordings. […] Movies were filtered in both the time and space domain and conduction velocity (CV) was measured as described previously (Hou L, et al., Circulation Research. 2010;107:1503-1511, herein incorporated by reference in its entirety).
Small glass coverslips to fit into a 96 well format dish are not readily available so here plastic was used as the rigid comparator for PDMS.

hiPSC-CM monolayers [2] = experiment: Hypertrophic growth and monolayer formation of hiPSC-CMs on glass or PDMS coverslips with FAK inhibitor
Description: In a second set of experiments hiPSC-CM monolayers were fixed for immunocytochemistry following optical mapping recordings of impulse propagation as recently described (Lee P, et al., Circulation Research. 2012;110:1556-1563, herein incorporated by reference in its entirety). Briefly, cell monolayers were washed with PBS and then fixed with 4% paraformaldehyde for 10 minutes and rinsed twice before blocking with 10% normal donkey serum in PBS plus 0.1% Triton X-100 (Sigma) for 1.5 hours at room temperature. Primary antibodies were used to detect α-actinin (1:500, Sigma) in the cardiac sarcomeres and Cx43 (1:100, Millipore) and N-cadherin (1:200, BD Bioscience) at the intercellular junctions. The primary antibodies were added to 5% donkey serum in PBS plus 0.1% Triton X-100 and incubated overnight at 4° C. Subsequently, cells were washed three times in PBS plus 0.1% TRITON X-100. […] Protein localization was examined by laser scanning confocal microscopy with sequential laser firing for multiple fluorophores (Nikon AIR, Melville, N.Y.). iPSC-CM cross sectional area was calculated in NIS Elements software using N-cadherin staining of the cell membranes.
Integrins are transmembrane heterodimeric receptors essential for providing cell-extracellular matrix adhesion, cellular structural organization and transduction of mechanical signals from the extracellular matrix into biochemical signals in cardiomyocytes (Ross R S, et al., Circulation Research. 2001;88:1112-1119; Israeli-Rosenberg S, et al., The FASEB Journal. 2015;29:374-384; Israeli-Rosenberg S, et al., Circulation Research. 2014;114:572-586). β1 integrins are abundant in the adult heart and participate in the hypertophic response in rodent ventricular myoyctes (Ross et al., Circulation Research. […] Finally, the role of FAK activation in the hypertrophic response of hiPSC-CMs to the soft cell culture environment on PDMS was determined (FIG. 8D and FIG. 14).

hiPSC-CMs (iCell) = experiment: Western blotting for mature myofilament proteins (cTnI, β-MyHC) in hiPSC-CMs cultured with FAK inhibitor
[3] = 10 μmol L^-1 FAK inhibitor-14, cultured on PDMS

Row | SMILES | CaTD80 post E4031 (hiPSC-CM monolayers [1]; PDMS bottom dishes, n=5, pre 579.8±13.9 ms) | effect on beat frequency and CaTD80 (in words) (hiPSC-CM monolayers [1]; PDMS bottom well) | reduction of spontaneous beating frequency (hiPSC-CM monolayers [1]; monolayers on matrigel coated PDMS, n=5) | reduction of spontaneous beating frequency (hiPSC-CM monolayers [1]; monolayers on rigid plastic (matrigel coated), n=8) | CaTD80 post E4031 (hiPSC-CM monolayers [1]; plastic bottom dishes, n=8, pre 605.9±24.3 ms) | effect on spontaneous beating frequency and CaTD80 (in words) (hiPSC-CM monolayers [1]; rigid plastic bottom dishes (matrigel coated)) | monolayer formation and hiPSC-CM expansion in culture (hiPSC-CM monolayers [2]; 100 μmol L^-1, both Glass and PDMS) | hypertrophic growth of hiPSC-CMs (hiPSC-CM monolayers [2]; PDMS coverslips) | effect on hiPSC-CMs grown on glass coverslips (hiPSC-CM monolayers [2]; glass coverslips, effect only at 100 μmol L^-1) | cTnI expression (hiPSC-CMs (iCell); [3]) | β-MyHC expression (hiPSC-CMs (iCell); [3]) | expression of mature myofilament protein isoforms including cTnI and β-MyHC (hiPSC-CMs (iCell); FIG. 8C legend)
1 | Cc1cccc(CCN2CCC(C(=O)c3ccc(NS(C)(=O)=O)cc3)CC2)n1 [E4031] | 780.1 ± 74.1 ms | more modest effect | ~20% | ~50% | 1873.8 ± 278.9 ms | very significant impact |  |  |  |  |  | 
2 | Nc1cc(N)c(N)cc1N [FAK inhibitor-14] |  |  |  |  |  |  | prevented monolayer formation and hiPSC-CM expansion in culture | prevented hypertrophic growth | only affected at very high dose | failed to express cTnI | expressed less β-MyHC | prevents expression
